Reference: ChEMBL document CHEMBL1136625, “Substituted quinolines induce inhibition of proliferation of HTLV-1 infected cells” (2003)

Tested on: Human T-cell leukemia virus type I
Assay: Inhibitory activity against human T-lymphotropic virus type 1 (HTLV-1) infected HUT-102 cells at 10 uM
Format: functional
Conditions: Primate T-lymphotropic virus 1, HuT-102

Row | Structure (SMILES) | inhibition at 10 µM [%]
1 | COc1ccc(/C=C/c2ccc3ccccc3n2)cc1OC | 0
2 | COc1ccc(C(O)Cc2ccc3ccccc3n2)cc1OC (centres undefined) | 0
3 | C(=C\c1ccc2ccccc2n1)/c1ccccc1 | 0
4 | COC(=O)/C=C/c1ccc2ccccc2n1 | 4
5 | OC/C=C/c1ccc2ccccc2n1 | 0
6 | COC(=O)/C=C/c1ccc2cc(C)ccc2n1 | 45
7 | BrC(Br)=Cc1ccc2ccccc2n1 | 0
8 | OC(c1ccc2ccccc2n1)C1CC1 (centres undefined) | 0
9 | CCCCCc1ccc2ccccc2n1 | 0
10 | CC1OC1c1ccc2ccccc2n1 (centres undefined) | 0
11 | CC/C=C/c1ccc2ccccc2n1 | 0
12 | C[Si](C)(C)C#Cc1ccc2ccccc2n1 | 87
13 | CCCCCCCCCCCC/C=C/c1ccc2ccccc2n1 | 6
14 | C=Cc1ccc2ccccc2n1 | 87
15 | c1ccc(C2OC2c2ccc3ccccc3n2)cc1 (centres undefined) | 0
16 | [O-][n+]1c(/C=C/c2ccccc2)ccc2ccccc21 | 86
17 | c1ccc2nc(CCc3ccc4c(c3)OCO4)ccc2c1 | 50
18 | OC(Cc1ccc2ccccc2n1)c1ccccc1 (centres undefined) | 16
19 | CCCCCCCCCCCCCCc1ccc2ccccc2n1 | 12
20 | CC(C)c1ccc2ccccc2n1 | 0
21 | CC(O)Cc1ccc2cccc(O)c2n1 (centres undefined) | 85
22 | CCCc1ccc2ccccc2n1 | 0
23 | C(#Cc1cnc2ccccc2c1)CCC#Cc1cnc2ccccc2c1 | 82
24 | CCC/C=C/c1ccc2ccccc2n1 | 46
25 | O=C/C=C/c1ccc2ccccc2n1 | 34
26 | c1ccc(-c2ccc3ccccc3n2)cc1 [2-PHENYLQUINOLINE] | 0

Species on record: Homo sapiens
Assay: Inhibitory activity against human T-lymphotropic virus type 1 (HTLV-1) infected HUT-102 cells at 50 uM
Format: functional
Conditions: not given

Row | Structure (SMILES) | inhibition at 50 µM [%]
27 | O=[N+]([O-])/C=C/c1ccc2ccccc2n1 | 0
28 | C(=C\c1ccc2ccccc2n1)/c1ccc2ccccc2n1 | 0
29 | CC(=O)Cc1ccc2ccccc2n1 | 0
